Assay results from patent US6608069B1, “Phenyl xanthine derivatives” (SmithKline Beecham Corporation, priority 1998, dated 2003).

How the values were obtained:
male Lewis rats = experiment: Carrageenan Pleurisy Assay; format: in vivo; conditions: carrageenan 0.075 mg/rat, harvested four hours after carrageenan; for % Inhibition Cells: inflammatory cells (neutrophils) in pleural exudate vs vehicle control; for % Inhibition Exudate: pleural edema (exudate) vs vehicle control
Description: 2) Carrageenan Pleurisy Assay
The antiinflammatory activity of compounds of the invention was determined by the procedure of Vinegar, R, et al., Proc. Soc. Exp. Biol. Med., 1981, 168, 24-32, using male Lewis rats of 150±20 grams. The carrageenan dose was 0.075 mg/rat. Pleural exudate was harvested four hours after injection of carrageenan. Acute antiinflammatory activity was determined by inhibition of pleural edema and inflammatory cells (neutrophils) from a negative (vehicle) control group.

[1] = tested on: cytokine-stimulated human umbilical vein endothelial cells; experiment: Cell Adhesion Assay: adherence of fluorescently-labelled leukocytes to endothelial cell monolayers; format: cell-based; conditions: inhibition of cytokine-stimulated adhesion minus basal adhesion; calcein-AM labelled leukocytes on HUVEC monolayers
How it was run: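 HUVEC monolayers were stimulated with cytokine, and adhesion of calcein-AM-labelled leukocytes was quantified by fluorescence. Inhibition was calculated on cytokine-stimulated adhesion after subtracting basal adhesion of unstimulated cells.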

Compound	IC50 [1] [nM]	melting point [°C]	% Inhibition Cells (male Lewis rats) [%]	% Inhibition Exudate (male Lewis rats) [%]
CCCn1c(=O)n(CC2CCCCC2)c(=O)c2nc(-c3ccc(/C=C/C(=O)OCCOCCOCCOCCOCCOCCOCCOCCOCCOC)cc3)[nH]c21 [Example 49, (E)-4-((1-cyclohexylmethyl-3-propyl)-1,2,3,6-tetrahydro-2,6-dioxo-9H-purin-8-yl)cinnamic Acid Nonaethylene Glycol Methyl Ether Ester]	13 ± 9		28	53
COCCOCCOCCOCCOCCOCCOCCOCCOCCOC(=O)/C=C/c1ccc(-c2nc3c(c(=O)n(CC4CCCCC4)c(=O)n3CC3CCCCC3)n2C)cc1 [Example 79, (E)-4-(1,3-Bis(cyclohexylmethyl)-2,3,6,7-tetrahydro-2,6-dioxo-7-methyl-1H-purin-8-yl)cinnamic Acid Nonaethylene Glycol Methyl Ether Ester]	3 ± 1		55	7
CCCn1c(=O)c2nc(-c3ccc(/C=C/C(=O)NCCOCCOCCOCCOCCOCCOCCOCCOCCOC)cc3)[nH]c2n(CC2CCCCC2)c1=O [Example 73, (E)-4-((1-propyl-3-cyclohexylmethyl)-1,2,3,6-tetrahydro-2,6-dioxo-9H-purin-8-yl)cinnamic Acid Nonaethylene Glycol Methyl Ether Amide]	> 1000		0	0
CCCn1c(=O)c2nc(-c3ccc(/C=C/C(=O)OCCOCCOCCOCCOCCOCCOCCOCCOCCOC)cc3)[nH]c2n(CC2CCCCC2)c1=O [Example 44, (E)-4-((1-propyl-3-cyclohexylmethyl)-1,2,3,6-tetrahydro-2,6-dioxo-9H-purin-8-yl)cinnamic Acid Nonaethylene Glycol Methyl Ether Ester]	20 ± 10		44	24
COCCOCCOCCOCCOCCOCCOCCOCCOCCOC(=O)/C=C/c1ccc(-c2nc3c(=O)n(Cc4ccccc4)c(=O)n(Cc4ccccc4)c3[nH]2)cc1 [Example 34]	< 0.1		20	59
CCCn1c(=O)n(CC2CCCCC2)c(=O)c2nc(-c3ccc(/C=C/C(=O)NCCOCCOCCOCCOCCOCCOCCOCCOCCOC)cc3)[nH]c21 [Example 74, (E)-4-((1-cyclohexylmethyl-3-propyl)-1,2,3,6-tetrahydro-2,6-dioxo-9H-purin-8-yl)cinnamic Acid Nonaethylene Glycol Methyl Ether Amide]	360 ± 160		85	70
O=C(O)/C=C/c1ccc(-c2nc3c(=O)n(Cc4ccccc4)c(=O)n(Cc4ccccc4)c3[nH]2)cc1 [Example 2, (E)-4-(1,3-bis(benzyl)-1,2,3,6-tetrahydro-2,6-dioxo-9H-purin-8-yl)cinnamic Acid]		> 300		
O=C(O)/C=C/c1cccc(-c2nc3c(=O)n(Cc4ccccc4)c(=O)n(Cc4ccccc4)c3[nH]2)c1 (hydrate or solvate) [Example 13, (E)-3-(1,3-bis(benzyl)-1,2,3,6-tetrahydro-2,6-dioxo-9H-purin-8-yl)cinnamic Acid]		> 350		
O=C(O)/C=C/c1ccc(-c2nc3c(=O)n(Cc4cccnc4)c(=O)n(Cc4cccnc4)c3[nH]2)cc1 (hydrate or solvate) [Example 30, (E)-4-(1,3-Bis(3-pyridinylmethyl)-1,2,3,6-tetrahydro-2,6-dioxo-9H-purin-8-yl)cinnamic Acid]		> 300		
COCCOCCOCCOCCOCCOCCOCCOCCOCCOC(=O)/C=C/c1ccc(-c2nc3c(=O)n(CC4CCCC4)c(=O)n(CC4CCCC4)c3[nH]2)cc1 [Example 36, (E)-4-(1,3-bis(cyclopentylmethyl)-1,2,3,6-tetrahydro-2,6-dioxo-9H-purin-8-yl)cinnamic Acid Nonaethylene Glycol Methyl Ether Ester]	11 ± 8		47	38
O=C(O)/C=C/c1ccc(-c2nc3c(=O)n(Cc4cccc(F)c4)c(=O)n(Cc4cccc(F)c4)c3[nH]2)cc1 [Example 20, (E)-4-(1,3-bis(3-fluorobenzyl)-1,2,3,6-tetrahydro-2,6-dioxo-9H-purin-8-yl)cinnamic Acid]		> 300		
COCCOCCOCCOCCOCCOCCOCCOCCOCCN(C)C(=O)/C=C/c1ccc(-c2nc3c(=O)n(CC4CCCCC4)c(=O)n(CC4CCCCC4)c3[nH]2)cc1 [Example 68, (E)-4-(1,3-Bis(cyclohexylmethyl)-1,2,3,6-tetrahydro-2,6-dioxo-9H-purin-8-yl) cinnamic Acid N-methyl Nonaethylene Glycol Methyl Ether Amide]	72 ± 19		92	80
O=C(O)/C=C/c1ccc(-c2nc3c(=O)n(CCc4ccccc4)c(=O)n(CCc4ccccc4)c3[nH]2)cc1 [Example 22, (E)-4-(1,3-bis(2-phenylethyl)-1,2,3,6-tetrahydro-2,6-dioxo-9H-purin-8-yl)cinnamic Acid]		> 350		

More lines, main results first:

IC50 [1] [nM]	melting point [°C]	Compound	% Inhibition Cells (male Lewis rats) [%]	% Inhibition Exudate (male Lewis rats) [%]
	> 350	CCCn1c(=O)c2nc(-c3cccc(/C=C/C(=O)O)c3)[nH]c2n(CCC)c1=O (hydrate or solvate) [Example 26, (E)-3-[1,3-bis(propyl)-1,2,3,6-tetrahydro-2,6-dioxo-9H-purin-8-yl]cinnamic Acid]		
	> 300	CCCn1c(=O)c2nc(-c3ccc(/C=C/C(=O)O)cc3)[nH]c2n(CCC)c1=O [Example 4, (E)-4-(1,3-bis(propyl)-1,2,3,6-tetrahydro-2,6-dioxo-9H-purin-8-yl)cinnamic Acid]		
	> 350	O=C(O)/C=C/c1cccc(-c2nc3c(=O)n(CC4CCCCC4)c(=O)n(CC4CCCCC4)c3[nH]2)c1 (hydrate or solvate) [Example 31, (E)-3-[1,3-Bis(cyclohexylmethyl)-1,2,3,6-tetrahydro-2,6-dioxo-9H-purin-8-yl]cinnamic Acid]		
	> 300	O=C(O)/C=C/c1ccc(-c2nc3c(=O)n(CC4CCC4)c(=O)n(CC4CCC4)c3[nH]2)cc1 (hydrate or solvate) [Example 27, (E)-4-(1,3-bis(cyclobutylmethyl)-1,2,3,6-tetrahydro-2,6-dioxo-9H-purin-8-yl)cinnamic Acid]		
	> 250	O=C(O)/C=C/c1ccc(-c2nc3c(=O)n(CCC4CCCCC4)c(=O)n(CCC4CCCCC4)c3[nH]2)cc1 [Example 8, (E)-4-(1,3-bis(2-cyclohexylethyl)-1,2,3,6-tetrahydro-2,6-dioxo-9H-purin-8-yl)cinnamic Acid]		
	> 250	O=C(O)/C=C/c1ccc(-c2nc3c(=O)n(CC4CCCCCC4)c(=O)n(CC4CCCCCC4)c3[nH]2)cc1 (hydrate or solvate) [Example 7, (E)-4-(1,3-bis(cycloheptylmethyl)-1,2,3,6-tetrahydro-2,6-dioxo-9H-purin-8-yl)cinnamic Acid]		
	> 300	CC(C)Cn1c(=O)c2nc(-c3ccc(/C=C/C(=O)O)cc3)[nH]c2n(CC(C)C)c1=O [Example 10, (E)-4-(1,3-bis(2-methylpropyl)-1,2,3,6-tetrahydro-2,6-dioxo-9H-purin-8-yl)cinnamic Acid]		
	> 350	Cn1c(=O)c2nc(-c3ccc(/C=C/C(=O)O)cc3)[nH]c2n(C)c1=O (hydrate or solvate) [Example 14, (E)-4-(1,3-bis(methyl)-1,2,3,6-tetrahydro-2,6-dioxo-9H-purin-8-yl)cinnamic Acid]		
	> 250	O=C(O)/C=C/c1ccc(-c2nc3c(=O)n(CC4CC4)c(=O)n(CC4CC4)c3[nH]2)cc1 [Example 5, (E)-4-(1,3-bis(cyclopropylmethyl)-1,2,3,6-tetrahydro-2,6-dioxo-9H-purin-8-yl)cinnamic Acid]		
